Experimental data from US12503475B2 (Centessa Pharmaceuticals (UK) Limited, priority 2020, dated 2025).

Target: T1, human orexin type 2 receptor (hOX2R) (Homo sapiens, UniProt O43614)
T1 construct: expressed in transfected cells
T1 sequence (O43614 1-444): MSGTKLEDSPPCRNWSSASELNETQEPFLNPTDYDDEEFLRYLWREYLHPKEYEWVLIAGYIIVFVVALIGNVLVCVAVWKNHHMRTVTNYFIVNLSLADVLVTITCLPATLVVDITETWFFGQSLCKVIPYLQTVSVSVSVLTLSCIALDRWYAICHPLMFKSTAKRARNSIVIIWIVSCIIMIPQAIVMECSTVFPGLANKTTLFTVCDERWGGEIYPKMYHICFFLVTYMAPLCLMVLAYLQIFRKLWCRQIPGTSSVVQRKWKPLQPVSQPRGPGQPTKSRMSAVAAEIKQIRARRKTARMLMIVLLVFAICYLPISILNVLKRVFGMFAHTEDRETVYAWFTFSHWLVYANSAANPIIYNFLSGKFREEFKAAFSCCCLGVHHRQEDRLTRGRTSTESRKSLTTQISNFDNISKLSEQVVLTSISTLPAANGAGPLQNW
Test: Measurement of orexin type 2 receptor agonist activity (FLIPR calcium fluorescence)
Format: cell-based
Details: CHO cells expressing hOX2R, FLIPR calcium fluorescence; for EC50: read-out: hOx2 pEC50 (converted); for Emax: CHO, read-out: hOx2 Emax (%)
Outline: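 Agonism was read as fluorescence in cells stably expressing human OX2R. E. is the response at 10 μM relative to orexin A as full agonist (100%).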

Compound | EC50 [nM] | Emax [%]
O=C([C@H](O)CF)N1CC2(CC2)[C@H](NS(=O)(=O)CF)[C@@H]1Cc1cc(F)cc(-c2cc(F)cc(F)c2)c1F [Compound 373, 1-fluoro-N-((6S,7S)-5-((S)-3-fluoro-2-hydroxypropanoyl)-6-((2,3′,5,5′-tetrafluoro-[1,1′-biphenyl]-3-yl)methyl)-5-azaspiro[2.4]heptan-7-yl)methanesulfonamide] | 1 to 10 | 90 to 100
O=C(NC[C@@H]1CCO1)N1CC2(CC2)[C@H](NS(=O)(=O)CF)[C@@H]1Cc1cccc(-c2ccccc2)c1F [Compound 374, (6S,7S)-6-((2-fluoro-[1,1′-biphenyl]-3-yl)methyl)-7-((fluoromethyl)sulfonamido)-N-(((S)-oxetan-2-yl)methyl)-5-azaspiro[2.4]heptane-5-carboxamide] | 1 to 10 | 90 to 100
C[C@H](CF)NC(=O)N1CC2(CC2)[C@H](NS(=O)(=O)CF)[C@@H]1Cc1cc(F)cc(-c2ccccc2)c1F [Compound 375, (6S,7S)-6-((2,5-difluoro-[1,1′-biphenyl]-3-yl)methyl)-7-((fluoromethyl)sulfonamido)-N-((R)-1-fluoropropan-2-yl)-5-azaspiro[2.4]heptane-5-carboxamide] | 0.0794 to 1 | 90 to 100
CC[C@](C)(O)C(=O)N1CC2(CC2)[C@H](NS(=O)(=O)CF)[C@@H]1Cc1cccc(-c2cccc(F)c2)c1F [Compound 376, N-((6S,7S)-6-((2,3′-difluoro-[1,1′-biphenyl]-3-yl)methyl)-5-((S)-2-hydroxy-2-methylbutanoyl)-5-azaspiro[2.4]heptan-7-yl)-1-fluoromethanesulfonamide] | 1 to 10 | 90 to 100
O=C([C@@H](O)C1CC1)N1CC2(CC2)[C@H](NS(=O)(=O)C(F)F)[C@@H]1Cc1cccc(-c2cc(F)cc(F)c2)c1F [Compound 377, N-((6S,7S)-5-((S)-2-cyclopropyl-2-hydroxyacetyl)-6-((2,3′,5′-trifluoro-[1,1′-biphenyl]-3-yl)methyl)-5-azaspiro[2.4]heptan-7-yl)-1,1-difluoromethanesulfonamide] | 0.0794 to 1 | 90 to 100
C[C@@H](F)C(=O)N1CC2(CC2)[C@H](NS(=O)(=O)C(F)F)[C@@H]1Cc1cccc(-c2cc(F)cc(F)c2)c1F [Compound 378, 1,1-difluoro-N-((6S,7S)-5-((R)-2-fluoropropanoyl)-6-((2,3′,5′-trifluoro-[1,1′-biphenyl]-3-yl)methyl)-5-azaspiro[2.4]heptan-7-yl)methanesulfonamide] | 0.0794 to 1 | 90 to 100
CC[C@@](C)(O)C(=O)N1CC2(CC2)[C@H](NS(=O)(=O)CF)[C@@H]1Cc1cccc(-c2cccc(F)c2)c1F [Compound 379, N-((6S,7S)-6-((2,3′-difluoro-[1,1′-biphenyl]-3-yl)methyl)-5-((R)-2-hydroxy-2-methylbutanoyl)-5-azaspiro[2.4]heptan-7-yl)-1-fluoromethanesulfonamide] | 1 to 10 | 90 to 100
O=C([C@H](O)CF)N1CC2(CC2)[C@H](NS(=O)(=O)C(F)F)[C@@H]1Cc1cccc(-c2cccc(F)c2)c1F [Compound 380, N-((6S,7S)-6-((2,3′-difluoro-[1,1′-biphenyl]-3-yl)methyl)-5-((S)-3-fluoro-2-hydroxypropanoyl)-5-azaspiro[2.4]heptan-7-yl)-1,1-difluoromethanesulfonamide] | 0.0794 to 1 | 90 to 100
N#CC1(C(=O)N2CC3(CC3)[C@H](NS(=O)(=O)C(F)F)[C@@H]2Cc2cccc(-c3cc(F)cc(F)c3)c2F)CCC1 [Compound 381, N-((6S,7S)-5-(1-cyanocyclobutane-1-carbonyl)-6-((2,3′,5′-trifluoro-[1,1′-biphenyl]-3-yl)methyl)-5-azaspiro[2.4]heptan-7-yl)-1,1-difluoromethanesulfonamide] | 1 to 10 | 90 to 100
O=C(NCC(F)F)N1CC2(CC2)[C@H](NS(=O)(=O)C(F)F)[C@@H]1Cc1cccc(-c2cc(F)cc(F)c2)c1F [Compound 382, (6S,7S)-N-(2,2-difluoroethyl)-7-((difluoromethyl)sulfonamido)-6-((2,3′,5′-trifluoro-[1,1′-biphenyl]-3-yl)methyl)-5-azaspiro[2.4]heptane-5-carboxamide] | 0.0794 to 1 | 90 to 100
O=C(NCC(F)(F)F)N1CC2(CC2)[C@H](NS(=O)(=O)C(F)F)[C@@H]1Cc1cc(F)cc(-c2ccccc2)c1F [Compound 383, (6S,7S)-6-((2,5-difluoro-[1,1′-biphenyl]-3-yl)methyl)-7-((difluoromethyl)sulfonamido)-N-(2,2,2-trifluoroethyl)-5-azaspiro[2.4]heptane-5-carboxamide] | 1 to 10 | 90 to 100
O=C([C@@H](O)C1CC1)N1CC2(CC2)[C@H](NS(=O)(=O)C(F)F)[C@@H]1Cc1cc(F)cc(-c2cc(F)cc(F)c2)c1F [Compound 384, N-((6S,7S)-5-((S)-2-cyclopropyl-2-hydroxyacetyl)-6-((2,3′,5,5′-tetrafluoro-[1,1′-biphenyl]-3-yl)methyl)-5-azaspiro[2.4]heptan-7-yl)-1,1-difluoromethanesulfonamide] | 1 to 10 | 90 to 100
O=C([C@@H](O)C1CC1)N1CC2(CC2)[C@H](NS(=O)(=O)C(F)F)[C@@H]1Cc1cc(F)cc(-c2ccccc2)c1F [Compound 385] | 0.0794 to 1 | 90 to 100
COCC1(C(=O)N2CC3(CC3)[C@H](NS(C)(=O)=O)[C@@H]2Cc2cccc(-c3ccccc3)c2F)CC1 [Compound 386, N-((6S,7S)-6-((2-fluoro-[1,1′-biphenyl]-3-yl)methyl)-5-(1-(methoxymethyl)cyclopropane-1-carbonyl)-5-azaspiro[2.4]heptan-7-yl)methanesulfonamide] | 1 to 10 | 90 to 100
O=C(NCC(F)F)N1CC2(CC2)[C@H](NS(=O)(=O)C(F)F)[C@@H]1Cc1cc(F)cc(-c2cc(F)cc(F)c2)c1F [Compound 387] | 1 to 10 | 90 to 100
C[C@H](CF)NC(=O)N1CC2(CC2)[C@H](NS(=O)(=O)C(F)F)[C@@H]1Cc1cc(F)cc(-c2ccccc2)c1F [Compound 388, (6S,7S)-6-((2,5-difluoro-[1,1′-biphenyl]-3-yl)methyl)-7-((difluoromethyl)sulfonamido)-N-((R)-1-fluoropropan-2-yl)-5-azaspiro[2.4]heptane-5-carboxamide] | 1 to 10 | 90 to 100
O=C(NCC(F)F)N1CC2(CC2)[C@H](NS(=O)(=O)C(F)F)[C@@H]1Cc1cc(F)cc(-c2ccccc2)c1F [Compound 389, (6S,7S)-6-((2,5-difluoro-[1,1′-biphenyl]-3-yl)methyl)-N-(2,2-difluoroethyl)-7-((difluoromethyl)sulfonamido)-5-azaspiro[2.4]heptane-5-carboxamide] | 1 to 10 | 90 to 100
O=C([C@H](O)CF)N1CC2(CC2)[C@H](NS(=O)(=O)C(F)F)[C@@H]1Cc1cc(F)cc(-c2ccccc2)c1F [Compound 390, N-((6S,7S)-6-((2,5-difluoro-[1,1′-biphenyl]-3-yl)methyl)-5-((S)-3-fluoro-2-hydroxypropanoyl)-5-azaspiro[2.4]heptan-7-yl)-1,1-difluoromethanesulfonamide] | 1 to 10 | 90 to 100
O=C([C@H](O)CF)N1CC2(CC2)[C@H](NS(=O)(=O)CF)[C@@H]1Cc1cccc(-c2cc(F)cc(F)c2)c1F [Compound 391, 1-fluoro-N-((6S,7S)-5-((S)-3-fluoro-2-hydroxypropanoyl)-6-((2,3′,5′-trifluoro-[1,1′-biphenyl]-3-yl)methyl)-5-azaspiro[2.4]heptan-7-yl)methanesulfonamide] | 0.0794 to 1 | 90 to 100
O=C([C@H](O)CF)N1CC2(CC2)[C@H](NS(=O)(=O)C(F)F)[C@@H]1Cc1cccc(-c2cc(F)cc(F)c2)c1F [Compound 392, 1,1-difluoro-N-((6S,7S)-5-((S)-3-fluoro-2-hydroxypropanoyl)-6-((2,3′,5′-trifluoro-[1,1′-biphenyl]-3-yl)methyl)-5-azaspiro[2.4]heptan-7-yl)methanesulfonamide] | 0.0794 to 1 | 90 to 100
C[C@H](F)C(=O)N1CC2(CC2)[C@H](NS(=O)(=O)CF)[C@@H]1Cc1cc(F)cc(-c2cccc(F)c2)c1F [Compound 393, 1-fluoro-N-((6S,7S)-5-((S)-2-fluoropropanoyl)-6-((2,3′,5-trifluoro-[1,1′-biphenyl]-3-yl)methyl)-5-azaspiro[2.4]heptan-7-yl)methanesulfonamide] | 1 to 10 | 90 to 100
C[C@@H](F)C(=O)N1CC2(CC2)[C@H](NS(=O)(=O)CF)[C@@H]1Cc1cc(F)cc(-c2cccc(F)c2)c1F [Compound 394] | 0.0794 to 1 | 90 to 100
CC(C)S(=O)(=O)N[C@@H]1[C@H](Cc2cc(F)cc(-c3cc(F)cc(F)c3)c2F)N(C(=O)[C@H]2CCO2)CC12CC2 [Compound 395, N-((6S,7S)-5-((R)-oxetane-2-carbonyl)-6-((2,3′,5,5′-tetrafluoro-[1,1′-biphenyl]-3-yl)methyl)-5-azaspiro[2.4]heptan-7-yl)propane-2-sulfonamide] | 0.0794 to 1 | 90 to 100
CC(C)S(=O)(=O)N[C@@H]1[C@H](Cc2cc(F)cc(-c3ccccc3)c2F)N(C(=O)[C@H]2CCO2)CC12CC2 [Compound 396] | 1 to 10 | 90 to 100
